In US20090029984A1 (priority 2005, published 2009):
Where “and” joins values, the source holds several entries; their conditions need not be identical. Equal values may be shown once. Entries after “also recorded” stand apart in the source; their conditions may differ. Read-outs that look alike come from different tables or passages of the source.

Experiments:
[1] = test system: mice; conditions: mouse, in vivo
[2] = molecular target: T1, human CB2 receptor (Homo sapiens, UniProt P34972); experiment: Efficacy and potency at the human CB2 receptor expressed in CHO cells (cAMP, forskolin); type: cell-based
T1 construct: expressed in transfected cells; host or cells: CHO cells
T1 sequence (P34972 whole entry): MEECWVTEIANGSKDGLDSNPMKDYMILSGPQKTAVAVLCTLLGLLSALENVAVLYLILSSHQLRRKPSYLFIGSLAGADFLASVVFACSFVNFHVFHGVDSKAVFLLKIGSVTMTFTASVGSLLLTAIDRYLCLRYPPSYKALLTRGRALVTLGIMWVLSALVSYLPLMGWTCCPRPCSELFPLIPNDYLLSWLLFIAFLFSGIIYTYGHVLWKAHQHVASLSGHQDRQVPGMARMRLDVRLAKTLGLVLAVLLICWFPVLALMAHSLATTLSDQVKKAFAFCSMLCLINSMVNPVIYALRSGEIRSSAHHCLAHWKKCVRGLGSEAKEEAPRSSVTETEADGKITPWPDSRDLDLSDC

[3] = rat, cited from earlier work

COc1ccc2c3c1O[C@H]1[C@@H](O)C=C[C@H]4[C@@H](C2)N(C)CC[C@@]341 [Codeine, reference compound]
% of MPE ([1]; iv): 44.2% | Tail flick latency (s) + s.e.m. at Tmax ([1]; iv): 6.95 ± 0.84 s

CCOC(=O)c1c(C)cc2nc(COC(=O)NCCO)n(-c3ccccc3S(=O)(=O)NC)c(=O)c2c1C [Compound 1a, 2-(2-Hydroxy-ethylcarbamoyloxymethyl)-5,7-dimethyl-3-(2-methylsulfamoylphenyl)-4-oxo-3,4-dihydro-quinazoline-6-carboxylic acid ethyl ester]
EC50 [2]: 3.5 nM | Emax ([2]; CHO, relative to maximal response (100%) obtained with CP 55940, human CB2): 107% | effect on tail flick latency (in words) [1]: had no effect on tail flick latency | effect on tail flick latency (in words) ([1]; iv): had no effect on tail flick latency; also recorded: did not increase the tail flick latency | time of maximum effect post-injection ([1]; iv): 40 min

Cl.O=C(NCCO)[C@H]1CCCN(Cc2nc(-c3cn(CC4CCS(=O)(=O)CC4)c4c(Cl)cccc34)ns2)C1 [Compound 2, (S)-7-Chloro-3-[(5-{[3-N-(2-hydroxyethyl)carboxamido]piperidin-1-yl}methyl)([1,2,4]-thiadiazol-3-yl)]-1-(1,1-dioxo-hexahydrothiopyran-4-yl)methyl-1H-indole, hydrochloride salt]
combination versus opioid on its own (in words) [1]: significantly different | time of maximum effect post-injection ([1]; iv): 20 min | effect of co-administration on tail flick latency (in words) ([1]; iv, hydrochloride salt): increased tail flick latency in a dose-dependent manner; also recorded: dose-dependent potentiation

Cc1c(C(=O)c2cccc3ccccc23)c2cccc3c2n1[C@H](CN1CCOCC1)CO3 [WIN55, 212-2]
brain-to-plasma ratio ([3]; Dyson et al 2005): 1.3-1.9

C=C(C)[C@@H]1CCC(C)=C[C@H]1c1c(O)cc(CCCCC)cc1O [cannabidiol]
brain-to-plasma ratio ([3]; Alozie et al 1980): 2.61

CCCCCc1cc(O)c2c(c1)OC(C)(C)c1ccc(C)cc1-2 [cannabinol]
brain-to-plasma ratio ([3]; Alozie et al 1980): 0.88

CN1CC[C@]23c4c5ccc(O)c4O[C@H]2[C@@H](O)C=C[C@H]3[C@H]1C5 [morphine, reference compound]
% of MPE ([1]; iv): 47.7% and 42.9%

CCCCCc1cc(O)c2c(c1)OC(C)(C)[C@@H]1CCC(C)=C[C@@H]21 [Δ^9THC, Δ^9-tetrahydrocannabinol]
brain-to-plasma ratio ([3]; Alozie et al 1980): 0.96 | brain-to-plasma ratio ([3]; Dyson et al 2005): 1.0
